Data: the CheMixHub viscosity set

Assay: xn = mol fraction of the nth substance listed

Clc1ccccc1 + c1ccccc1
Details	viscosity [mPa·s]
293.15 K, 101.33 kPa, x1 = 0.143	0.6759
293.3 K, 101.33 kPa, x1 = 0.028	0.6845
293.55 K, 101.33 kPa, x1 = 0.232	0.711
293.65 K, 101.33 kPa, x1 = 0.318	0.7337
298.15 K, 101 kPa, x1 = 0.08	0.613
298.15 K, 101 kPa, x1 = 0.121	0.62
298.15 K, 101 kPa, x1 = 0.162	0.623
298.15 K, 101 kPa, x1 = 0.8	0.718
298.15 K, 101 kPa, x2 = 0.1034	0.7546
298.15 K, 101 kPa, x2 = 0.2016	0.7369
298.15 K, 101 kPa, x2 = 0.303	0.7233
298.15 K, 101 kPa, x2 = 0.4022	0.7072
298.15 K, 101 kPa, x2 = 0.4985	0.6923
298.15 K, 101 kPa, x2 = 0.6048	0.6743
298.15 K, 101 kPa, x2 = 0.6994	0.6625
298.15 K, 101 kPa, x2 = 0.8033	0.6462
298.15 K, 101 kPa, x2 = 0.9031	0.632
303.15 K, 101 kPa, x2 = 0.1126	0.7
303.15 K, 101 kPa, x2 = 0.2016	0.6977
303.15 K, 101 kPa, x2 = 0.2221	0.6855
303.15 K, 101 kPa, x2 = 0.303	0.6794
303.15 K, 101 kPa, x2 = 0.3286	0.6713
303.15 K, 101 kPa, x2 = 0.4322	0.6573
303.15 K, 101 kPa, x2 = 0.4985	0.652
303.15 K, 101 kPa, x2 = 0.5331	0.6432
303.15 K, 101 kPa, x2 = 0.6048	0.6347
303.15 K, 101 kPa, x2 = 0.6314	0.6285
303.15 K, 101 kPa, x2 = 0.6994	0.6217
303.15 K, 101 kPa, x2 = 0.7271	0.6127
303.15 K, 101 kPa, x2 = 0.8033	0.6064
303.15 K, 101 kPa, x2 = 0.8204	0.5964
303.15 K, 101 kPa, x2 = 0.9031	0.5883
303.15 K, 101 kPa, x2 = 0.9113	0.5798
303.15 K, 101.33 kPa, x1 = 0.143	0.6027
308.15 K, 101 kPa, x1 = 0.08	0.537
308.15 K, 101 kPa, x1 = 0.121	0.544
308.15 K, 101 kPa, x1 = 0.162	0.547
308.15 K, 101 kPa, x2 = 0.303	0.6411
308.15 K, 101 kPa, x2 = 0.4022	0.6281
308.15 K, 101 kPa, x2 = 0.4985	0.6109
308.15 K, 101 kPa, x2 = 0.6048	0.5958
308.15 K, 101 kPa, x2 = 0.6994	0.5832
308.15 K, 101 kPa, x2 = 0.8033	0.5679
308.15 K, 101 kPa, x2 = 0.9031	0.5512
313.05 K, 101.33 kPa, x1 = 0.318	0.5743
313.15 K, 101 kPa, x2 = 0.303	0.6041
313.15 K, 101 kPa, x2 = 0.4022	0.5902
313.15 K, 101 kPa, x2 = 0.4985	0.5747
313.15 K, 101 kPa, x2 = 0.6048	0.5628
313.15 K, 101 kPa, x2 = 0.6994	0.5482
313.15 K, 101 kPa, x2 = 0.8033	0.5333
313.15 K, 101 kPa, x2 = 0.9031	0.5146
313.15 K, 101.33 kPa, x1 = 0.028	0.5278
313.15 K, 101.33 kPa, x1 = 0.411	0.5831
313.25 K, 101.33 kPa, x1 = 0.143	0.54
313.25 K, 101.33 kPa, x1 = 0.232	0.5469
313.25 K, 101.33 kPa, x1 = 0.707	0.6187
313.35 K, 101.33 kPa, x1 = 0.512	0.593
313.75 K, 101.33 kPa, x1 = 0.073	0.5223
313.75 K, 101.33 kPa, x1 = 0.568	0.5979
313.75 K, 101.33 kPa, x1 = 0.849	0.6472
318.15 K, 101 kPa, x1 = 0.08	0.475
318.15 K, 101 kPa, x1 = 0.121	0.482
318.15 K, 101 kPa, x1 = 0.162	0.486
322.85 K, 101.33 kPa, x1 = 0.143	0.5005
323.15 K, 101 kPa, x1 = 0.08	0.444
323.15 K, 101 kPa, x1 = 0.121	0.451
323.15 K, 101 kPa, x1 = 0.162	0.454
323.15 K, 101 kPa, x1 = 0.8	0.541

COC(C)(C)C + CCCCCCO
viscosity [mPa·s], 101 kPa
Details	x1 = 0.0204	x1 = 0.0304	x1 = 0.0495
298.15 K	4.315	4.175	3.925
303.15 K	–	–	3.395

Clc1ccccc1 + C=C(C)C(=O)OC
303.15 K, 101 kPa
Details	viscosity [mPa·s]
x2 = 0.099	0.6943
x2 = 0.1971	0.6738
x2 = 0.3987	0.6345
x2 = 0.4982	0.6147
x2 = 0.6984	0.5743
x2 = 0.7989	0.5538
x2 = 0.8987	0.5349

Clc1ccccc1 + CC#N
viscosity [mPa·s], 101 kPa
Details	298.15 K	303.15 K	308.15 K
x1 = 0.1038	–	–	0.352
x1 = 0.2009	–	–	0.3871
x1 = 0.3059	–	–	0.4245
x1 = 0.3949	–	–	0.4591
x1 = 0.4943	–	–	0.4944
x1 = 0.5946	–	–	0.5309
x1 = 0.6984	–	–	0.5671
x1 = 0.7956	–	–	0.6032
x1 = 0.8961	–	–	0.6352
x2 = 0.082	0.728	0.65	–
x2 = 0.1809	0.681	0.609	–
x2 = 0.267	0.642	0.577	–
x2 = 0.3853	0.587	0.529	–
x2 = 0.506	0.539	0.484	–
x2 = 0.5957	0.501	0.459	–
x2 = 0.6925	0.46	0.418	–
x2 = 0.8175	0.406	0.373	–
x2 = 0.9171	0.367	0.337	–

C=CC(=O)OCC + CCCCC(C)O
viscosity [mPa·s], 101 kPa
Details	298.15 K	308.15 K
x1 = 0.05505	3.659	2.636
x1 = 0.09982	3.336	2.426
x1 = 0.1555	2.973	2.188
x1 = 0.1998	2.712	2.015
x1 = 0.2555	2.417	1.817
x1 = 0.2999	2.205	1.673
x1 = 0.3554	1.965	1.509
x1 = 0.3999	1.793	1.389
x1 = 0.4555	1.598	1.253
x1 = 0.4999	1.458	1.154
x1 = 0.5556	1.299	1.04
x1 = 0.5999	1.185	0.958
x1 = 0.6554	1.056	0.864
x1 = 0.6995	0.964	0.797
x1 = 0.7554	0.859	0.718
x1 = 0.7999	0.783	0.661
x1 = 0.8555	0.698	0.596
x1 = 0.8999	0.637	0.549
x1 = 0.9555	0.568	0.495

N#CCCCCC#N + CCCCOC(C)=O
303.15 K, 101.33 kPa
Details	viscosity [mPa·s]
x1 = 0.0984	0.7145
x1 = 0.3003	1.052
x1 = 0.3857	1.281
x1 = 0.4963	1.663
x1 = 0.5929	2.082
x1 = 0.6974	2.631
x1 = 0.8455	3.61
